# According to patent US5498601A, “Platelet aggregation-inhibiting peptides” (Nippon Steel Corporation, priority 1992, dated 1996):
# Residues, ends and D or L forms follow the SMILES beside them. *: point of attachment. X1 = O=C(c1cc(=O)[nH]c(=O)[nH]1)*
# How the values were obtained:
# human platelets [1] = system: human platelets
# Experimental: (§4) Immediately after the blood collection, the syringe was stirred gently to mix the blood with the sodium citrate solution. The mixed blood was centrifuged (1100 rpm, 250 g) at room temperature for 15 minutes and the rotation was stopped without applying the brake. Then, the supernatant was collected with a pipette to obtain a platelet fraction. The remaining blood was further centrifuged (3000 rpm, 1000 g). The supernatant was collected to obtain platelet-poor plasma and stored.
# (§5) The platelet fraction was placed in a polypropylene test tube, which was capped with a membrane filter to ensure breathability. Then, the test tube was placed on a shaker and stored at room temperature while shaking through vibrational amplitude of 20 cm at a frequency of 2 Hz. All the operations were performed under aseptic conditions to prevent the proliferation of bacteria during the storage.
# (§6) After the storage for a given period of time, an aliquot of the platelet fraction was sampled and the number of platelets was measured. Prostaglandin E1 (Sigma Co.) was added to give a final concentration of 20 μg/ml and centrifuged at 750 g for 10 minutes. The supernatant was removed and the remainder was washed twice with HEPES-Tyrode's buffer containing prostaglandin E1 to remove the protected peptide. Finally, the platelets were suspended in preliminarily stored platelet-poor plasma. After the incubation for a given period of time, the aggregation ability of the platelets was determined by the method described above.
# platelet aggregation [2] = assay: intravenous injection in beagle, platelet aggregation of PRP measured over time; format: in vivo; settings: 5 mg/Kg i.v.
# Experimental: (1) In order to examine how long the peptides of the present invention and heparin, which is used as an anticoagulant at present, can remain without being broken down or eliminated and how long the activity of them persists, intravenous injection experiments were carried out using beagles.
# Since the peptides of the present invention have the platelet aggregation-inhibiting activity, the amount of the peptides which remain in the body of an organism without being broken down can be determined by collecting blood and measuring the platelet aggregation-inhibiting activity of the blood at given intervals of time. Thus, the in vivo stability of the peptides can be estimated.
# In the experiments, a male beagle having a body weight of 10 Kg was used. […] The collected blood was centrifuged at 1000 rpm for 10 minutes to prepare platelet-rich plasma (PRP). The reminder was further centrifuged at 3000 rpm for 15 minutes to prepare platelet-poor plasma (PPP).
# The platelet aggregation ability was determined by measuring the platelet aggregation of the PRP with collagen and ADP using an aggregometer. In the measurement, ADP was added at a final concentration of 7.5 and 10.0 μM and collagen was added at a final concentration of 7.5 and 10.0 μg/ml.
# Hela cells = assay: adhesion of HeLa cells to extracellular matrix protein adsorbed plates; format: cell-based
# Experimental: (§1) (1) Using type 1 collagen (Iwaki Glass, type I-c), type 4 collagen (Iwaki Glass, type IV), fibronectin (human-origin, Iwaki Glass), vitronectin (human-origin, Iwaki Glass) and laminin (mouse […] sarcoma-origin, Iwaki Glass) as extracellular matrix proteins, experiments were performed to examine cell adhesion to a plastic plate on which those ectracellular matrix proteins had been adsorbed.
# (§2) Each of the collagens was diluted with saline (adjusted to pH 3.0 with hydrochloric acid) to prepare a dilution at a concentration of 100 μg/ml for use in adsorption. The remaining three proteins were diluted with PBS of pH 7.4 to prepare dilutions at a concentration of 20 μg/ml for further use. […]
# (§3) After the incubation for one hour according to the method described above, all the liquid present in each well was removed and the wells were washed three times with PBS to remove non-adherent cells. […] The concentration of methylene blue releasing from the cells was determined by a spectrophotometer on the basis of absorbance at 600 nm measured. In this measurement system, the number of cells adhering to the extracellular matrix proteins is proportional to the absorbance at 600 nm and therefore can be measured with precision.
# B16F10 melanoma cells = assay: adhesion of B16F10 melanoma cells to extracellular matrix protein adsorbed plates; format: cell-based
# Experimental: as §1, §2, §3
# human platelets [3] = assay: protection of human platelet fraction during storage
# Experimental: as §4, §5, §6
# [4] = system: blood coagulation in the dialysis circuit; assay: extracorporeal circulation (artificial dialysis) model using a beagle; format: in vivo
# Experimental: In order to confirm that the peptides of the present invention have the action of inhibiting blood coagulation in an extracorporeal circulation system, experiments were carried out on an artificial dialysis model using a beagle which is one of extracorporeal circulation models (see Hamano et al., Thromb. Res. 55 (1989) 438-449).
# In the experiments, beagles weighing about 10-12 Kg were used. The beagles were anesthetized with pentobarbital (about 30 mg/Kg) and the right hind leg was incised to expose the femoral artery and femoral vein. Cannulas were inserted into the exposed femoral artery and femoral vein and connected to the artificial dialyzator for experiments (Kuraray, Osaka, Japan) having a circuit configuration as shown in FIG. 5. A hollow-fiber dialyzer (RENAK-A, RA-04, 0.4 m^2, Kawasumi Laboratories, Tokyo) was used. A pump for blood was placed between the femoral artery and the dialyzator and operated to keep the blood flow rate at 25 ml/min in the extracorporeal circulation system during the experiments.
# The following three parameters were measured in the experiments: 1 the pressure in the up-stream portion of the dialyzer (perfusion pressure), 2 the percent platelet adhesion and 3 the whole blood coagulation time. The pressure under 1 was measured by a pressure gauge incorporated in the upper stream portion of the dialyzator in the dialysis circuit as shown in FIG. 5. Since at the site of dialyzer blood often experiences contacts with foreign materials and blood flows in a narrow space, blood coagulation is most likely to occur at this site in the dialysis circuit. If blood coagulation occurs there, the dialyzer is clogged and the blood pressure in the up-stream portion will increase. The change in the perfusion pressure at this site indicates the degree of blood coagulation in the dialysis circuit. In connection with parameters2 and 3, an aliquot of blood was sampled at the inlet and outlet of the dialysis part at given intervals of time to measure 2 and 3 by conventional methods. Parameters 2 and 3 indicate how the function of platelets and that of blood coagulation (the degree of activation), respectively, change with the progress of the experiments.
# The experiments began with a continuous injection of a solution of the peptide of the present invention in saline from the arterial side (or the inlet side of the dialysis circuit) immediately after the circuit set-up. The amount of injection was 10 mg/dog or 30 mg/dog and the total amount was gradually injected over 1 hour (injection rate: 1 ml/min). In a control, only saline was continuously injected in the same manner. The injection of the drug was stopped after 60 minutes and blood was thereafter circulated up to 180 minutes to continue the measurement of the above parameters. […]
# platelet aggregation [5] = settings: 400 μM; cited from earlier work
# [6] = type 1 collagen, type 4 collagen, fibronectin, vitronectin
# [7] = during the continuous injection of the drug
compound,measurement,setting,value
"NC(N)=NCCC[C@H](N)C(=O)NCC(=O)N[C@@H](CC(=O)O)C(=O)N[C@@H](CO)C(=O)O [Comparative Example 1, Arg--Gly--Asp--Ser--OH]",stability when added to a platelet fraction,human platelets [1],broken down in several hours
"N=C(N)NCCC[C@H](NC(=O)[C@H](CO)NC(=O)c1cc(=O)[nH]c(=O)[nH]1)C(=O)NCC(=O)N[C@@H](CC(=O)O)C(=O)N[C@@H](Cc1c[nH]c2ccccc12)C(=O)O [Example 9, Orotyl--Ser--Arg--Gly--Asp--Trp--OH] (X1-SRGDW-OH)",platelet aggregation time course with changed collagen concentration or ADP as inducer,platelet aggregation [2],the same results were obtained
same,platelet aggregation 5 minutes after the injection,platelet aggregation [2]; collagen 10 μg/ml as inducer,completely inhibited
same,time to complete recovery of platelet aggregation activity to the level before the injection,platelet aggregation [2]; collagen 10 μg/ml as inducer,45 to 60 min
same,effect on cell adhesion to laminin,Hela cells; laminin,scarcely any effect
same,cell adhesion to the other extracellular matrix proteins,Hela cells; [6],inhibited depending on the concentration
same,effect on cell adhesion to laminin,B16F10 melanoma cells; laminin,scarcely any effect
same,cell adhesion to the other extracellular matrix proteins,B16F10 melanoma cells; [6],inhibited depending on the concentration
same,aggregation activity of platelets remaining,"human platelets [3]; 400 μM, after the 72 hour storage",60-70%
same,decrease in the number of platelets,"human platelets [3]; 400 μM, storage period of 72 hours",little decrease in the number of platelets
same,decrease in the aggregation activity of platelets during storage,"human platelets [3]; dependent on peptide concentration, control decreased to 25% in 72 hours",the decrease in the aggregation activity was significantly inhibited
same,decrease in the number of platelets during storage compared to the control group,"human platelets [3]; room temperature, shaking, dependent on peptide concentration",significant inhibitory effect on the decrease in the number of platelets
same,increase in the perfusion pressure,[4]; 10 mg/dog continuously injected over 1 hour,the increase rate of the perfusion pressure was evidently slow
same,increase in the perfusion pressure,"[4]; 30 mg/dog continuously injected over 1 hour, during the injection",little or no increase in the perfusion pressure
same,blood coagulation ability during the continuous injection,[4]; [7],approximately 0%
same,whole blood coagulation time,[4]; [7],significantly prolonged
GRGDSP,aggregation of platelets activated by ADP,platelet aggregation [5],completely inhibited
